Experimental data: patent publication US20210198277A1, “AMINE-SUBSTITUTED ARYL OR HETEROARYL COMPOUNDS” (Epizyme, Inc., priority 2016, published 2021)

target: T1, EHMT1 (Homo sapiens, UniProt Q9H9B1); experiment: EHMT1 enzyme assay on peptide substrate (EHMT1 PEP); type: biochemical; details: Table VI; read-out: EHMT1 PEP IC50
T1 sequence (Q9H9B1 1-1298): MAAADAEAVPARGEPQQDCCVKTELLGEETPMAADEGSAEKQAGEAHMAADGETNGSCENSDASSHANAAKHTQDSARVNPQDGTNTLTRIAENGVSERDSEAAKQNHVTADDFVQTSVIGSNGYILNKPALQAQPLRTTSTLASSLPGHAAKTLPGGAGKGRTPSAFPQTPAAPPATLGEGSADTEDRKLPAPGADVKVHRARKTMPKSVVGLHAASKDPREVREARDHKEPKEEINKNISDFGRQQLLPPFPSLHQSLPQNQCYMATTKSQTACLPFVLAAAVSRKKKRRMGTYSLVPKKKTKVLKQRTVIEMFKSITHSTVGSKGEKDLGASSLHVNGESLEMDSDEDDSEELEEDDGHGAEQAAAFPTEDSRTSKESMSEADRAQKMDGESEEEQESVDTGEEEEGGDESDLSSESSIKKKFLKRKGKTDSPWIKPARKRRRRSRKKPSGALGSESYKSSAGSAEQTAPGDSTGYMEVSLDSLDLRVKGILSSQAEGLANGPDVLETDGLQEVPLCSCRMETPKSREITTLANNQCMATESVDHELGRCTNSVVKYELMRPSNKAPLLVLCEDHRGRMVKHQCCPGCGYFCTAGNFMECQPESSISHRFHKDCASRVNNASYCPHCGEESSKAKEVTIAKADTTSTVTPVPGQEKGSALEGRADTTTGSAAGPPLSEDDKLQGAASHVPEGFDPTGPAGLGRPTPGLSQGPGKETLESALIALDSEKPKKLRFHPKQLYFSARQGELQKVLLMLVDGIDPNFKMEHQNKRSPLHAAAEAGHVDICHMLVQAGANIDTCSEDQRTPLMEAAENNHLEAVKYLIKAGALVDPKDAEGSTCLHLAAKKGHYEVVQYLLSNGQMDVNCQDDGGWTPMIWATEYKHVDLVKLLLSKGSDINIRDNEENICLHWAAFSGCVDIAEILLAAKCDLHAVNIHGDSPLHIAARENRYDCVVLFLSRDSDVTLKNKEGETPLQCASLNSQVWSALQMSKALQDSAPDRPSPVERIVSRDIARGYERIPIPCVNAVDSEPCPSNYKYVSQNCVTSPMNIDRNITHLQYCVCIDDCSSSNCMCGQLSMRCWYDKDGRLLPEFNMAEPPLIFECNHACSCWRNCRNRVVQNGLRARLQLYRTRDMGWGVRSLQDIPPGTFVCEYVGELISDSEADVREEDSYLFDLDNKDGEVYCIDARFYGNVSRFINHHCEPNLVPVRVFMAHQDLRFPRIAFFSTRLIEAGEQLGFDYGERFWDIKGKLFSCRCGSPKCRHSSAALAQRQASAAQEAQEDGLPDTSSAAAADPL

| SMILES | IC50 [µM] |
| --- | --- |
| COc1cc(NC2CCNCC2)ncc1OCC1CCN(C)C1 (stereo not shown) [Compound 604] | 0.1 to 1 |
| COc1nc(NC2CCNCC2)ncc1OCC1CCN(C)C1 (stereo not shown) [Compound 605] | > 10 |
| CCN1CC(COc2cc(Nc3nc(C)cc4[nH]ncc34)ncc2OC)C1 [Compound 607] | < 0.1 |
| CNc1cc(C)nc(Nc2cc(OCCCN3CCCC3)n3cnnc3c2)n1 [Compound 628] | > 10 |
| COc1cc(NC2CCNCC2)ncc1OCC1CCNC1 (stereo not shown) [Compound 629] | < 0.1 |
| CCc1nc(NC2CCNCC2)ncc1OCC1CCN(C)C1 (stereo not shown) [Compound 630] | > 10 |
| CCc1nc(NC2CCNCC2)ncc1OCC1CN(C(C)C)C1 [Compound 631] | > 10 |
| CN1CCC(Nc2ncc(OCC3CCN(C)C3)cn2)CC1 (stereo not shown) [Compound 632] | > 10 |
| CN1CCC(COc2cnc(N(C)C3CCNCC3)nc2)C1 (stereo not shown) [Compound 633] | > 10 |
| CC(C)N1CC(COc2cnc(NC3CCNCC3)nc2)C1 [Compound 636] | > 10 |
| CC(C)N1CC[C@@H](COc2cnc(N(C)C3CCNCC3)nc2)C1 [Compound 637] | > 10 |
| COc1cnc(Nc2cccn3cncc23)cc1OCCCN1CCCC1 [Compound 638] | > 10 |
| COc1cnc(NC(=O)/C=C/CN(C)C)cc1OCCCN1CCCC1 [Compound 640] | > 10 |
| CNc1cc(C)nc(Nc2cnc(OC)c(OC[C@@H]3CCNC3)c2)n1 [Compound 641] | < 0.1 |
| COc1cc(Nc2ccc3[nH]ncc3c2)ncc1OCCCN1CCCC1 [Compound 643] | > 10 |
| CNc1cc(C)nc(Nc2ccc(OC)c(CNCCN3CCCC3)c2)n1 [Compound 644, 2-N-[4-methoxy-3-([[2-(pyrrolidin-1-yl)ethyl]amino]methyl)phenyl]-4-N,6-dimethylpyrimidine-2,4-diamine] | < 0.1 |
| CNc1cc(C)nc(Nc2ccc(OC)c(CN(C)CCN3CCCC3)c2)n1 [Compound 645] | 1 to 10 |
| CCN1CCC(NCc2cc(Nc3nc(C)cc(NC)n3)ccc2OC)C1 (stereo not shown) [Compound 646] | 1 to 10 |
| CCN1CC(NCc2cc(Nc3nc(C)cc(NC)n3)ccc2OC)C1 [Compound 647] | 1 to 10 |
| COc1cc(Nc2ccc3[nH]ncc3n2)ncc1OCCCN1CCCC1 [Compound 648] | 1 to 10 |

| SMILES | IC50 [µM] |
| --- | --- |
| CCN1CC([C@H](C)Oc2cc(Nc3nc(C)cc(NC)n3)ccc2OC)C1 [Compound 649] | 0.1 to 1 |
| CCN1CC(N(C)Cc2cc(Nc3nc(C)cc(NC)n3)ccc2OC)C1 [Compound 650] | > 10 |
| CCN1CCC(N(C)Cc2cc(Nc3nc(C)cc(NC)n3)ccc2OC)C1 (stereo not shown) [Compound 651] | 1 to 10 |
| COc1cnc(Nc2cccc3nccn23)nc1OCCCN1CCCC1 [Compound 654] | > 10 |
| COc1cnc(Nc2cccc3[nH]ncc23)nc1OCCCN1CCCC1 [Compound 655] | > 10 |
| COc1cnc(Nc2cccc3nncn23)nc1OCCCN1CCCC1 [Compound 656] | > 10 |
| CNc1cc(C)nc(Nc2cnc(OC)c(O)c2)n1 [Compound 676] | > 10 |
| CNCCN(C)Cc1cc(Nc2nc(C)cc(NC)n2)ccc1OC [Compound 680] | 1 to 10 |
| COc1cnc(Nc2ccc3[nH]nnc3c2)cc1OCCCN1CCCC1 [Compound 686] | > 10 |
| CCN1CC([C@@H](C)Oc2cc(Nc3nc(C)cc(NC)n3)ccc2OC)C1 [Compound 687] | 1 to 10 |
| CNc1ccnc(Nc2ccc(OC)c(CNC[C@@H]3CCCN3)c2)n1 [Compound 1019] | 0.1 to 1 |
| CNc1ccnc(Nc2ccc(OC)c(CNC[C@H]3CCCN3)c2)n1 [Compound 1020] | 1 to 10 |
| CNc1ccnc(Nc2ccc(OC)c(OCC[C@@H]3CCCN3)c2)n1 [Compound 1021] | 0.1 to 1 |
| CNc1ccnc(Nc2ccc(OC)c(OCC[C@H]3CCCN3)c2)n1 [Compound 1022] | 0.1 to 1 |
| CNc1cc(C)c2cc(OC)c(OC[C@H](O)CN3CCC3)cc2n1 [Compound 1028] | < 0.1 |
| CNc1cc(C)nc(Nc2ccc(OC)c(CNCCN3CC[C@@H](F)C3)c2)n1 [Compound 1030] | < 0.1 |
| CNc1cc(C)nc(Nc2cnc(OC)c(CNCCN3CCCC3)c2)n1 [Compound 1031] | < 0.1 |
| CNc1ccnc(Nc2ccc(OC)c(CNCCN3CCCC3)c2)n1 [Compound 1032] | < 0.1 |
| CNc1ccnc(Nc2ccc(OC)c(CNCCN3CCC3)c2)n1 [Compound 1033] | < 0.1 |
| CNCCNCc1cc(Nc2nccc(NC)n2)ccc1OC [Compound 1034] | 0.1 to 1 |

The remaining lines, values ahead:

| IC50 [µM] | SMILES |
| --- | --- |
| 0.1 to 1 | COc1cc(N(C)C2CCNCC2)ncc1OCC1CCN(C)C1 (stereo not shown) [Compound 634] |
| 1 to 10 | COc1cc(N(C)C2CCNCC2)ncc1OCC1CCN(C)C1 (stereo not shown) [Compound 635] |
| < 0.1 | COc1cc2c(C3CCN(C)CC3)c(F)c(C)nc2cc1OCCCN1CCCC1 [Compound 652] |
| 0.1 to 1 | COc1cc2c(C3CCN(C)CC3)nc(C)nc2cc1OCCCN1CCCC1 [Compound 658] |
| 0.1 to 1 | COc1cc2c(C3CCN(C(C)C)CC3)nc(C)nc2cc1OCCCN1CCCC1 [Compound 659] |
| < 0.1 | CCN1CC(COc2cc3nc(C)cc(C4CCN(C)CC4)c3cc2OC)C1 [Compound 660] |
| < 0.1 | CCN1CC(COc2cc3nc(C)cc(C4CCN(C(C)C)CC4)c3cc2OC)C1 [Compound 661] |
| < 0.1 | CCN1CC[C@@H](COc2cc3nc(C)cc(C4CCN(C)CC4)c3cc2OC)C1 [Compound 662] |
| < 0.1 | CCN1CC[C@@H](COc2cc3nc(C)cc(C4CCN(C(C)C)CC4)c3cc2OC)C1 [Compound 663] |
| 1 to 10 | CCN1CC(COc2cc3nc(C)nc(C4CCN(C)CC4)c3cc2OC)C1 [Compound 664] |
| 1 to 10 | CCN1CC(COc2cc3nc(C)nc(C4CCN(C(C)C)CC4)c3cc2OC)C1 [Compound 665] |
| < 0.1 | CCN1CC[C@@H](COc2cc(Nc3nc(C)cc(NCC4CCOCC4)n3)ccc2OC)C1 [Compound 667] |
| 0.1 to 1 | COc1cc2c(C3CCOCC3)cc(C)nc2cc1OCCCN1CCCC1 [Compound 668] |
| 0.1 to 1 | COc1cc2c(C3CCN(C(C)C)CC3)cc(C)nc2nc1OCCCN1CCCC1 [Compound 670] |
| < 0.1 | CCc1cc(NC)nc(Nc2ccc(OC)c(OC[C@@H]3CCN(CC)C3)c2)n1 [Compound 671] |
| < 0.1 | CCN1CC[C@@H](COc2cc(Nc3nc(NC)cc(C(C)C)n3)ccc2OC)C1 [Compound 672] |
| 0.1 to 1 | CCN1CC[C@@H](COc2cc3nc(C)nc(C4CCN(C)CC4)c3cc2OC)C1 [Compound 673] |

| IC50 [µM] | SMILES |
| --- | --- |
| 1 to 10 | CCN1CC[C@@H](COc2cc3nc(C)nc(C4CCN(C(C)C)CC4)c3cc2OC)C1 [Compound 674] |
| < 0.1 | COc1cc2c(C3CCN(C)CC3)cc(-c3cn[nH]c3)nc2cc1OCCCN1CCCC1 [Compound 677] |
| 0.1 to 1 | COc1cc2c(C3CCN(C)CC3)cc(-c3cc[nH]n3)nc2cc1OCCCN1CCCC1 [Compound 678] |
| 1 to 10 | COc1cc2c(C3CCOCC3)cc(-c3cn[nH]c3)nc2cc1OCCCN1CCCC1 [Compound 679] |
| 0.1 to 1 | COc1cc2c(C3CCN(C)CC3)nc(-c3cn[nH]c3)nc2cc1OCCCN1CCCC1 [Compound 681] |
| < 0.1 | COCCN1CCC(c2cc(C)nc3cc(OCCCN4CCCC4)c(OC)cc23)CC1 [Compound 682] |
| < 0.1 | CNc1cc(C)c2cc(OC)c(OCCCN3CCCC3)cc2n1 [Compound 736] |
| 1 to 10 | CNc1nc(C)c2cc(OC)c(OCCCN3CCCC3)cc2n1 [Compound 737] |
| 0.1 to 1 | COc1cc2c(C)cc(N3CCNCC3)nc2cc1OCCCN1CCCC1 [Compound 738] |
| > 10 | COc1cc2c(C)nc(N3CCNCC3)nc2cc1OCCCN1CCCC1 [Compound 739] |
| < 0.1 | CNc1nc(C2CCN(CCOC)CC2)c2cc(OC)c(OCCCN3CCCC3)cc2n1 [Compound 740] |
| 0.1 to 1 | COc1cc2c(C3CCN(C)CC3)cc(C)nc2cc1OCCCN1CC[C@H](F)C1 [Compound 741] |
| < 0.1 | COc1cc2c(C3CCN(C)CC3)cc(C)nc2cc1OCCCN1CC[C@@H](F)C1 [Compound 742] |
| 1 to 10 | COc1cc2c(C3CCCN(C)C3)nc(C)nc2cc1OCCCN1CCCC1 (stereo not shown) [Compound 743] |
| 0.1 to 1 | COc1cc2c(C3CCN(C)C3)nc(C)nc2cc1OCCCN1CCCC1 (stereo not shown) [Compound 745] |
| 0.1 to 1 | CNc1nc(C2CCCN(C)C2)c2cc(OC)c(OCCCN3CCCC3)cc2n1 (stereo not shown) [Compound 746] |
